Patent US4812465A, “Triazole derivatives for use as antimycotic agents” (CL Pharma Aktiengesellschaft, priority 1986, dated 1989)
Values after ≈ are worked out from the molar mass of the structure shown. Values joined by “and” are separate entries in the source; they are usually repeats but may differ in a detail not shown here. Equal values may be shown once.

Columns and labels:
Assay in all cases: In vitro determination of minimum inhibitory concentration (MIC), serial dilution
Type in all cases: cell-based
Trichophyton verrucosum = settings: 336 h, pH 6, Trichophyton verrucosum, pH 6.0, 22° C., 14 days
Method: (§1) The antimycotic activities of the compounds were measured by in vitro determination of the minimum inhibitory concentration (MIC) for yeasts, molds and dermatophytes.
(§2) 6 dermatophytes, 2 yeasts and 4 molds were used for testing with fungi, as follows:
(§3) The minimum inhibitory concentration (MIC) was determined in serial dilution tests in test tubes. The volume of the liquid nutrient medium in each test tube was 4.5 ml.
(§4) The substances were dissolved in DMSO and diluted with sterile distilled water to 10 concentrations (100, 50, 25, 12.5, 6.25, 3.12, 1.56, 0.78, 0.39 and 0.19 μg/ml). 0.5 ml of each of these dilution steps was added to liquid nutrient medium. Thus, a constant concentration of solvent in all the nutrient media was ensured, irrespective of the active compound concentration.
(§5) A comparison solution which contained only the solvent in appropriate concentration was included when carrying out each of the tests.
(§6) The individual strains were maintained on Sabouraud/beerwort agar slants and, before they were used in a test, they underwent a passage on a modified Sabouraud liquid nutrient medium. The strains were then harvested, washed and converted into a suspension of McFaerland 3 in the case of yeasts and molds and of McFaerland 4-5 in the case of dermatophytes.
(§7) The amount of material inoculated (inoculum) was 100 μl/test tube (inoculated densities: yeasts about 10^3 /ml, molds about 10^4 /ml, dermatophytes about 10^4 /ml). The pH of the liquid nutrient medium was 6.0. After inoculation had taken place the fungi were incubated at 22° C. for 14 days.
(§8) The MIC was then determined. The concentration step at which growth was no longer visible on macroscopic inspection was used for the determination of the MIC. The comparison substance used was 1-(2-(2,4-dichlorophenyl)-2-(2,4-dichlorophenylmethoxy)ethyl)-1H-imidazole(compound A).

Microsporum canis = settings: pH 6.0, 22° C., 14 days; for MIC: 336 h, pH 6, Microsporum canis
Method: as §1, §2, §3, §4, §5, §6, §7, §8

Epidermophyton floccosum = settings: pH 6.0, 22° C., 14 days; for MIC: 336 h, pH 6, Epidermophyton floccosum
Method: as §1, §2, §3, §4, §5, §6, §7, §8

Trichophyton rubrum = settings: 336 h, pH 6, Trichophyton rubrum, pH 6.0, 22° C., 14 days
Method: as §1, §2, §3, §4, §5, §6, §7, §8

Candida albicans = settings: 336 h, pH 6, Candida albicans, pH 6.0, 22° C., 14 days, read-out: MIC C.alb
Method: as §1, §2, §3, §4, §5, §6, §7, §8

Aspergillus fumigatus = settings: 20160 min, pH 6
Method: as §1, §2, §3, §4, §5, §6, §7, §8

Mucor mucedo minus = settings: Mucor mucedo, 336 h, pH 6, Mucor mucedo minus; pH 6.0, 22° C., 14 days
Method: as §1, §2, §3, §4, §5, §6, §7, §8

Absidia ramosa = settings: pH 6.0, 22° C., 14 days; for MIC: Lichtheimia ramosa, 336 h, pH 6, Absidia ramosa
Method: as §1, §2, §3, §4, §5, §6, §7, §8

Candida tropicalis = settings: 336 h, pH 6, Candida tropicalis, pH 6.0, 22° C., 14 days, read-out: MIC C.trop
Method: as §1, §2, §3, §4, §5, §6, §7, §8

Mucor mucedo plus = settings: Mucor mucedo, 336 h, pH 6, Mucor mucedo plus; pH 6.0, 22° C., 14 days
Method: as §1, §2, §3, §4, §5, §6, §7, §8

Microsporum gypseum = settings: Nannizzia gypsea, 336 h, pH 6, Microsporum gypseum; pH 6.0, 22° C., 14 days; read-out: MIC Mi.gyp
Method: as §1, §2, §3, §4, §5, §6, §7, §8

[1] = system: Trichophyton mentagrophytes; settings: pH 6.0, 22° C., 14 days; for MIC: 336 h, pH 6, Trichophyton mentagrophytes
Method: as §1, §2, §3, §4, §5, §6, §7, §8

Structure (SMILES) | MIC (Trichophyton verrucosum) [µg/mL] | MIC (Microsporum canis) [µg/mL] | MIC (Epidermophyton floccosum) [µg/mL] | MIC (Trichophyton rubrum) [µg/mL] | MIC (Candida albicans) [µg/mL] | MIC Asp.fu. (Aspergillus fumigatus) | MIC (Mucor mucedo minus) [µg/mL] | MIC (Absidia ramosa) [µg/mL] | MIC (Candida tropicalis) [µg/mL] | MIC (Mucor mucedo plus) [µg/mL] | MIC (Microsporum gypseum) [µg/mL] | MIC [1] [µg/mL] | MIC Ep.flo (Epidermophyton floccosum) | MIC Mi.can (Microsporum canis) | MIC Abs.ra. (Absidia ramosa; Absidia ramosa) | MIC Tri.me. [1]
COc1ccc(SCCNC(Cn2ccnc2)c2ccc(Cl)cc2Cl)cc1 (centres unmarked) [Compound 39] | 6.25 (≈ 14.8 µM) | 12.5 (≈ 29.6 µM) | 12.5 (≈ 29.6 µM) | 6.25 (≈ 14.8 µM) | 25 (≈ 59.2 µM) | 12,5 μg/ml | 12.5 (≈ 29.6 µM) | 25 (≈ 59.2 µM) | 12.5 (≈ 29.6 µM) | 12.5 | 6.25 (≈ 14.8 µM) | 6.25 (≈ 14.8 µM) |  |  |  | 
Clc1ccc(C(Cn2ccnc2)NCCSc2ccc3ccccc3c2)c(Cl)c1 (centres unmarked) [Compound 40] | 3.12 (≈ 7.05 µM) |  |  | 3.12 (≈ 7.05 µM) | 6.25 (≈ 14.1 µM) |  | 25 (≈ 56.5 µM) | 12.5 (≈ 28.3 µM) |  | 12.5 | 3.12 (≈ 7.05 µM) | 6.25 (≈ 14.1 µM) | 3,12 μg/ml and 6,25 μg/ml |  |  | 
Cc1ccc(OCCCNC(Cn2cncn2)c2ccc(Cl)cc2Cl)cc1 (centres unmarked) [Compound 52] | 3.12 (≈ 7.7 µM) | 3.12 (≈ 7.7 µM) | 3.12 (≈ 7.7 µM) | 3.12 (≈ 7.7 µM) | 12.5 (≈ 30.8 µM) | 6,25 μg/ml | 12.5 (≈ 30.8 µM) | 100 (≈ 247 µM) | 6.25 (≈ 15.4 µM) | 3.12 | 3.12 (≈ 7.7 µM) | 6.25 (≈ 15.4 µM) |  |  |  | 
CN(CCCOc1ccc(I)cc1)C(Cn1ccnc1)c1ccc(Cl)cc1Cl (centres unmarked) [Compound 65] | 1.56 (≈ 2.94 µM) | 1.56 (≈ 2.94 µM) | 3.12 (≈ 5.88 µM) | 0.78 (≈ 1.47 µM) | 3.12 (≈ 5.88 µM) | 3,12 μg/ml | 6.25 (≈ 11.8 µM) | 3.12 (≈ 5.88 µM) | 1.56 (≈ 2.94 µM) | 6.25 | 3.12 (≈ 5.88 µM) | 6.25 (≈ 11.8 µM) |  |  |  | 
COc1ccc(OCCCNC(Cn2ccnc2)c2ccc(Cl)cc2Cl)cc1 (centres unmarked) [Compound 67] | 6.25 (≈ 14.9 µM) | 50 (≈ 119 µM) | 100 (≈ 238 µM) |  |  |  |  | 100 (≈ 238 µM) | 50 (≈ 119 µM) |  | 25 (≈ 59.5 µM) | 100 (≈ 238 µM) | 50,0 μg/ml | 25,0 μg/ml | 50,0 μg/ml | 50,0 μg/ml

Continued, values first:

MIC (Trichophyton verrucosum) [µg/mL] | MIC (Microsporum canis) [µg/mL] | MIC (Epidermophyton floccosum) [µg/mL] | MIC (Trichophyton rubrum) [µg/mL] | MIC (Candida albicans) [µg/mL] | MIC Asp.fu. (Aspergillus fumigatus) | MIC (Mucor mucedo minus) [µg/mL] | MIC (Absidia ramosa) [µg/mL] | MIC (Candida tropicalis) [µg/mL] | MIC (Mucor mucedo plus) [µg/mL] | MIC (Microsporum gypseum) [µg/mL] | MIC [1] [µg/mL] | MIC Ep.flo (Epidermophyton floccosum) | MIC Mi.can (Microsporum canis) | MIC Abs.ra. (Absidia ramosa; Absidia ramosa) | MIC Tri.me. [1] | Structure (SMILES)
1.56 (≈ 3.31 µM) | 6.25 (≈ 13.3 µM) | 1.56 (≈ 3.31 µM) | 1.56 (≈ 3.31 µM) | 6.25 (≈ 13.3 µM) | 6,25 μg/ml | 6.25 (≈ 13.3 µM) | 12.5 (≈ 26.5 µM) | 6.25 (≈ 13.3 µM) | 6.25 | 0.78 (≈ 1.66 µM) | 1.56 (≈ 3.31 µM) |  |  |  |  | Clc1ccc(C(Cn2ccnc2)NCCSc2ccc(Br)cc2)c(Cl)c1 (centres unmarked) [Compound 37]
1.56 (≈ 3.82 µM) | 12.5 (≈ 30.6 µM) | 6.25 (≈ 15.3 µM) | 1.56 (≈ 3.82 µM) | 12.5 (≈ 30.6 µM) | 0,78 μg/ml | 0.78 (≈ 1.91 µM) | 6.25 (≈ 15.3 µM) | 3.12 (≈ 7.64 µM) | 1.56 | 3.12 (≈ 7.64 µM) | 3.12 (≈ 7.64 µM) |  |  |  |  | Fc1ccc(OCCCNC(Cn2ccnc2)c2ccc(Cl)cc2Cl)cc1 (centres unmarked) [Compound 56]
1.56 (≈ 3.56 µM) | 1.56 (≈ 3.56 µM) | 3.12 (≈ 7.11 µM) | 0.78 (≈ 1.78 µM) | 3.12 (≈ 7.11 µM) | 6,25 μg/ml | 1.56 (≈ 3.56 µM) | 6.25 (≈ 14.2 µM) | 1.56 (≈ 3.56 µM) | 3.12 | 3.12 (≈ 7.11 µM) | 6.25 (≈ 14.2 µM) |  |  |  |  | CN(CCCOc1ccc(Cl)cc1)C(Cn1ccnc1)c1ccc(Cl)cc1Cl (centres unmarked) [Compound 60]
1.56 (≈ 3.22 µM) | 3.12 (≈ 6.44 µM) | 0.78 (≈ 1.61 µM) | 3.12 (≈ 6.44 µM) | 6.25 (≈ 12.9 µM) | 1,56 μg/ml | 3.12 (≈ 6.44 µM) | 50 (≈ 103 µM) | 3.12 (≈ 6.44 µM) | 3.12 | 3.12 (≈ 6.44 µM) | 1.56 (≈ 3.22 µM) |  |  |  |  | CN(CCCOc1ccc(Br)cc1)C(Cn1cncn1)c1ccc(Cl)cc1Cl (centres unmarked) [Compound 62]
